Test results reported in patent publication US11572590B2, “Methods for evaluating tumor cell spheroids using 3D microfluidic cell culture device” (Dana-Farber Cancer Institute, Inc., priority 2017, dated 2023).
Where two headings read alike, the source gives them in different places.

Columns and labels:
Test in all cases: SelectScreen Kinase Profiling, single point inhibition and IC50 for off-target kinases
Assay type in all cases: biochemical
off-target kinases [1] = target: T1, off-target kinases (Homo sapiens, UniProt Q8TF76); conditions: GSG2 (Haspin); Cmpd1 1000 μM; ATP Km app; Adapta
T1 sequence (Q8TF76 1-798): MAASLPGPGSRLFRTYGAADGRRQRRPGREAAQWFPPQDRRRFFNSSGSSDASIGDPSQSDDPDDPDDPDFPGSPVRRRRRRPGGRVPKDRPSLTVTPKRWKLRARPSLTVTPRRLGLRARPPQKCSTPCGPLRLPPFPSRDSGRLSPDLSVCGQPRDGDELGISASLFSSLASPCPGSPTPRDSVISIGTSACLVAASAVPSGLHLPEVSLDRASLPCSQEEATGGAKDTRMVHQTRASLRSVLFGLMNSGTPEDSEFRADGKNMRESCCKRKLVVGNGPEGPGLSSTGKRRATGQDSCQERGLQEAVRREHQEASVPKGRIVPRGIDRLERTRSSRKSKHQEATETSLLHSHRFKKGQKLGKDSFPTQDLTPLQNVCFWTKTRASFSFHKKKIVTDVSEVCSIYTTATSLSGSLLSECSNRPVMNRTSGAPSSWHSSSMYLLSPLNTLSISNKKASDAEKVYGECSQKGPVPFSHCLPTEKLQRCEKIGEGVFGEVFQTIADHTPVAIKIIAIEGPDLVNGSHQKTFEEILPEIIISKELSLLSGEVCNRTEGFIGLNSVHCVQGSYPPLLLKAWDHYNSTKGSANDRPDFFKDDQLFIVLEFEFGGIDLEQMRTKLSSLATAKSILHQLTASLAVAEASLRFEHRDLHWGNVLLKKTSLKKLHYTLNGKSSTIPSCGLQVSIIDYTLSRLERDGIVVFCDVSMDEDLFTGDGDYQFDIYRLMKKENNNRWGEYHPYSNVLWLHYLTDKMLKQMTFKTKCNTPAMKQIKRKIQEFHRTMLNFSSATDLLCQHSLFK

off-target kinases [2] = target: off-target kinases (Homo sapiens, UniProt P10721, T670E); conditions: KIT T670E (mutant), LanthaScreen Binding
Sequence of off-target kinases (Homo sapiens, UniProt P10721, T670E) (P10721 26-976 T670E): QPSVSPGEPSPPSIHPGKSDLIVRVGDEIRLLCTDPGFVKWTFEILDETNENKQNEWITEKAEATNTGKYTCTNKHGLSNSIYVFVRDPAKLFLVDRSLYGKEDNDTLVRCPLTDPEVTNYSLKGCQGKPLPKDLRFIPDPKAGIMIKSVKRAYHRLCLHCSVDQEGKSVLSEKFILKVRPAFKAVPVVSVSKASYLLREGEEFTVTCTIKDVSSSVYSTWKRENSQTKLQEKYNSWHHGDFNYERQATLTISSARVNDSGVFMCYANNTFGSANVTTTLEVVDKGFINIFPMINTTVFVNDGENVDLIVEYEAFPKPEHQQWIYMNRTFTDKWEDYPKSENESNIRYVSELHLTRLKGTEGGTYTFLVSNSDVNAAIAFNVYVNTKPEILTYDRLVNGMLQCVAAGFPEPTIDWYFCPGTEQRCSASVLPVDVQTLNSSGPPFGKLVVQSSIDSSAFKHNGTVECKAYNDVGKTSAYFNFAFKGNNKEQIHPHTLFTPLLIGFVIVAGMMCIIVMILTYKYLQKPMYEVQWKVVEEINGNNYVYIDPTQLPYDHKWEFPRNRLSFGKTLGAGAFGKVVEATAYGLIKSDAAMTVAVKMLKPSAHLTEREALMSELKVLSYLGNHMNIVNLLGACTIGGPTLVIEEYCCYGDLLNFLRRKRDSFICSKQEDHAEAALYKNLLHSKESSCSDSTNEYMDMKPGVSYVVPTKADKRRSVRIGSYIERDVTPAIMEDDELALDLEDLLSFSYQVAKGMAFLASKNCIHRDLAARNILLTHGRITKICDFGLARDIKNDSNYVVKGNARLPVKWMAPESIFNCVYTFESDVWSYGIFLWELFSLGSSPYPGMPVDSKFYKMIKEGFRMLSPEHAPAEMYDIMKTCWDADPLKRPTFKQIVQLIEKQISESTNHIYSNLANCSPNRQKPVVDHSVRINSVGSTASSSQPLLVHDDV

off-target kinases [3] = target: off-target kinases (Homo sapiens, UniProt Q8TDX7); conditions: NEK7, ZLYTE, ATP Km app
Sequence of off-target kinases (Homo sapiens, UniProt Q8TDX7) (Q8TDX7 whole entry): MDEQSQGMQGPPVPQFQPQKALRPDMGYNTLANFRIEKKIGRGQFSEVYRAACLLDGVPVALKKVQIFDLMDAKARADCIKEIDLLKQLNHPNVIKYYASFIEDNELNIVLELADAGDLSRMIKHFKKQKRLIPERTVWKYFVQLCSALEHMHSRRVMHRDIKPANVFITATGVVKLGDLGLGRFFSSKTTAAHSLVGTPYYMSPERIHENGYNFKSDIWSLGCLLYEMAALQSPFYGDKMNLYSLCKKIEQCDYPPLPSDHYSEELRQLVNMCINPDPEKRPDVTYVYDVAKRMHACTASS

off-target kinases [4] = target: off-target kinases (Homo sapiens, UniProt P14616); conditions: INSRR (IRR), ZLYTE, ATP Km app
off-target kinases [5] = target: off-target kinases (Homo sapiens, UniProt O00750); conditions: PIK3C2B (PI3K-C2 beta), Adapta, ATP 10
Sequence of off-target kinases (Homo sapiens, UniProt O00750) (O00750 whole entry): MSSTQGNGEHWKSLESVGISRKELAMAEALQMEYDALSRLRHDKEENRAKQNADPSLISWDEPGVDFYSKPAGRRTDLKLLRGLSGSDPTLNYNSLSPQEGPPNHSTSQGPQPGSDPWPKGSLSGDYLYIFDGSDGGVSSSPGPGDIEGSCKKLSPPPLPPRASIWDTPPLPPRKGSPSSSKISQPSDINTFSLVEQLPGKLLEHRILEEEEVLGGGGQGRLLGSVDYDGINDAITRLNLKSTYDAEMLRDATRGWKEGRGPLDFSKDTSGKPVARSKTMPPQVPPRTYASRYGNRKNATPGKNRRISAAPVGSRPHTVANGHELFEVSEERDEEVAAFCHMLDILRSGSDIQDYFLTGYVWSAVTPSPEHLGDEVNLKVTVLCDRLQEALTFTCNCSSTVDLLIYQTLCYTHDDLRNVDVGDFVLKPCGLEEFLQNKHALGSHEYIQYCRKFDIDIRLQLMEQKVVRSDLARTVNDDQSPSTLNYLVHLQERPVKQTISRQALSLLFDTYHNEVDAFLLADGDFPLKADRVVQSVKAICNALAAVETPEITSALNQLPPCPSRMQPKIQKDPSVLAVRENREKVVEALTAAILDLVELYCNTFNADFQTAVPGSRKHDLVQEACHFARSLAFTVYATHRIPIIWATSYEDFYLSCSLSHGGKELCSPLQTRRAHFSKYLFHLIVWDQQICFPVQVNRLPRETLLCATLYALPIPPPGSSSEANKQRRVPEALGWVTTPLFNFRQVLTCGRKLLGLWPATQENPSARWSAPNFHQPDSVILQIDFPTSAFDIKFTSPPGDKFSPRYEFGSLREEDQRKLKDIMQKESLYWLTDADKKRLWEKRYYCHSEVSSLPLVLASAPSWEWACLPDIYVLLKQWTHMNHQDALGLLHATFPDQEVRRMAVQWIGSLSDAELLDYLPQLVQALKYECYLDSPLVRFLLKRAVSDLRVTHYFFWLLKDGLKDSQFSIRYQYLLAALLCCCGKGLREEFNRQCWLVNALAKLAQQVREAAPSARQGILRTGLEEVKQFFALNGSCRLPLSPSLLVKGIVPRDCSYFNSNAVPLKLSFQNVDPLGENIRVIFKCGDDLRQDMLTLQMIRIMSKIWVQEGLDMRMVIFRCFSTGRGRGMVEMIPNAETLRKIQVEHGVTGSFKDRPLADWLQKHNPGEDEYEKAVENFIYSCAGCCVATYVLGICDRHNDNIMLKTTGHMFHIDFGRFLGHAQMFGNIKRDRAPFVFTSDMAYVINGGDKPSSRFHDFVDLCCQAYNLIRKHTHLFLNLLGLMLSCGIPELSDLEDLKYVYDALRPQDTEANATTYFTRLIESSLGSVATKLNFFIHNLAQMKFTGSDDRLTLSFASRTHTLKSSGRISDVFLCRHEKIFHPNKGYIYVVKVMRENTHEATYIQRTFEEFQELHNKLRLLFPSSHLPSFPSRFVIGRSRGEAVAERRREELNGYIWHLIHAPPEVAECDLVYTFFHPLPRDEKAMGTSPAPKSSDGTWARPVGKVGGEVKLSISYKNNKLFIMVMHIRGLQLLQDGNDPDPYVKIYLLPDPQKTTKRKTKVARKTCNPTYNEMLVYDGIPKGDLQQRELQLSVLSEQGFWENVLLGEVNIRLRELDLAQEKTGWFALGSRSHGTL

off-target kinases [6] = target: off-target kinases (Homo sapiens, UniProt Q02750); conditions: MAP2K1 (MEK1)
off-target kinases [7] = target: off-target kinases (Homo sapiens, UniProt P51617); conditions: IRAK1, ATP Km app, Adapta
off-target kinases [8] = target: off-target kinases (Homo sapiens, UniProt Q9H2X6); conditions: HIPK2, ZLYTE, ATP Km app
Sequence of off-target kinases (Homo sapiens, UniProt Q9H2X6) (Q9H2X6 whole entry): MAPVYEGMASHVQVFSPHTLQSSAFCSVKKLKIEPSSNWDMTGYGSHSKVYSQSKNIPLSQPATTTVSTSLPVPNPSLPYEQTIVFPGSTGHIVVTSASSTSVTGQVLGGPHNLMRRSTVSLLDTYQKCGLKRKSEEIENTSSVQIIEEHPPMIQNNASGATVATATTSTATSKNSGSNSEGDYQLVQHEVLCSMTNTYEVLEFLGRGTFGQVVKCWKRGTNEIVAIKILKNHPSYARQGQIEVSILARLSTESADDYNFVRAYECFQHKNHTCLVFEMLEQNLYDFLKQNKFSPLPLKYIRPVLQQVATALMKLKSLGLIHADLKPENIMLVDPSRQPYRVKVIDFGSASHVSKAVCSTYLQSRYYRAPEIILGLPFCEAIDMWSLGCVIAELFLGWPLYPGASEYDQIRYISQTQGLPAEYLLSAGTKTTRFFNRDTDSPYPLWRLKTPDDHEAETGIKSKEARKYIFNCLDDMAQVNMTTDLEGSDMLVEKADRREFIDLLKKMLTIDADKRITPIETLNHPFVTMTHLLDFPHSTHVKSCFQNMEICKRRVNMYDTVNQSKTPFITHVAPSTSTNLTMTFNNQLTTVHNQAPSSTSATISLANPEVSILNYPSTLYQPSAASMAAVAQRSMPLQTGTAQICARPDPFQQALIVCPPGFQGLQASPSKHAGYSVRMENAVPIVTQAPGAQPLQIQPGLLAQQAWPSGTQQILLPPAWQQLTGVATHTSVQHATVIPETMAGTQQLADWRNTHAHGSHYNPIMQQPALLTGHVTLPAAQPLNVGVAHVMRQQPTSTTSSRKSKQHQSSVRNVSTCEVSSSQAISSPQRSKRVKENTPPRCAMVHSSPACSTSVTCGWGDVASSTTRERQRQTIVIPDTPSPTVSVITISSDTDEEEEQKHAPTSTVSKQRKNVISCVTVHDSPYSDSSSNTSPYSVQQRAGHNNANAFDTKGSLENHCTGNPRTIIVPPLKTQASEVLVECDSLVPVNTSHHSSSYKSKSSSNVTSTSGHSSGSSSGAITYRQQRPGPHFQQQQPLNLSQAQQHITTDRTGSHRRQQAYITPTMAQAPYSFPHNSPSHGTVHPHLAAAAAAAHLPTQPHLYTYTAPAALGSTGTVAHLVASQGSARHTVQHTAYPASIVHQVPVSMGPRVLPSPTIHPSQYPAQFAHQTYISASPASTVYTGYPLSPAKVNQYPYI

off-target kinases [9] = target: off-target kinases (Homo sapiens, UniProt P54756); conditions: EPHA5, ZLYTE, ATP Km app
Sequence of off-target kinases (Homo sapiens, UniProt P54756) (P54756 25-1037): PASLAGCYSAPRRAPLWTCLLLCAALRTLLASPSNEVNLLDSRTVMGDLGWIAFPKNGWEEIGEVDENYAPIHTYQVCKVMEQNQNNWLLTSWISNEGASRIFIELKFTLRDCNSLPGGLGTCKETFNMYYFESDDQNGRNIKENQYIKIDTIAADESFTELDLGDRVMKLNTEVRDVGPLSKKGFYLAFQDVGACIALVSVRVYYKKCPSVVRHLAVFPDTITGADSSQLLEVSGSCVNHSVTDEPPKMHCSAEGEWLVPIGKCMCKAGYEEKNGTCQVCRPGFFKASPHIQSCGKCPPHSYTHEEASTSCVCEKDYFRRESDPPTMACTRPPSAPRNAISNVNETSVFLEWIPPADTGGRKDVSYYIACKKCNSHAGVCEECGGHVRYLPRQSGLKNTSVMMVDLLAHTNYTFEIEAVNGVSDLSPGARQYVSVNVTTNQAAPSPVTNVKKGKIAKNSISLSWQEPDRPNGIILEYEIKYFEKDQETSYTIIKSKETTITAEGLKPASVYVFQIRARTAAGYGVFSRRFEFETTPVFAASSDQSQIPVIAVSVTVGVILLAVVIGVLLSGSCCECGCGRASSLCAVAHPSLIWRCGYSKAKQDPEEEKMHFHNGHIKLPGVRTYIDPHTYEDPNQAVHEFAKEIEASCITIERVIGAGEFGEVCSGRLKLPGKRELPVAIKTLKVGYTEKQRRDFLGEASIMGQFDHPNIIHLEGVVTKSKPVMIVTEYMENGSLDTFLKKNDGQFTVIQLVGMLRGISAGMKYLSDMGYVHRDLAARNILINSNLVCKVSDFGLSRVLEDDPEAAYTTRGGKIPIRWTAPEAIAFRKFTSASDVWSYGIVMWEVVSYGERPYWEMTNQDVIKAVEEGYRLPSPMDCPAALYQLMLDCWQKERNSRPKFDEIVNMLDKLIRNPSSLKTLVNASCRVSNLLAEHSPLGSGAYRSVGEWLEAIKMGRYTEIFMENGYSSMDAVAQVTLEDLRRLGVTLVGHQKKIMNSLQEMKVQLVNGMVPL

N#Cc1cc(-c2ncnc(Nc3ccc(N4CCN(C5COC5)CC4)cc3)n2)ccc1OC1CCOCC1 [Compound 1, 5-(4-((4-(4-(oxetan-3-yl)piperazin-1-yl)phenyl)amino)-1,3,5-triazin-2-yl)-2-((tetrahydro-2H-pyran-4-yl)oxy)benzonitrile]
% Inhibition 1 (off-target kinases [1]): 7% | % Inhibition 2 (off-target kinases [1]): −20% | % Inhibition Avg (off-target kinases [1]): −6% | inhibition (off-target kinases [2]; read-out: % Inhibition 1): 2% | inhibition (off-target kinases [2]; read-out: % Inhibition 2): 2% | inhibition (off-target kinases [2]; read-out: % Inhibition Avg): 2% | inhibition (off-target kinases [3]; read-out: % Inhibition 1): 5% | inhibition (off-target kinases [3]; read-out: % Inhibition 2): 2% | inhibition (off-target kinases [3]; read-out: % Inhibition Avg): 3% | inhibition (off-target kinases [4]; read-out: % Inhibition 1): 5% | inhibition (off-target kinases [4]; read-out: % Inhibition 2): 4% | inhibition (off-target kinases [4]; read-out: % Inhibition Avg): 4% | inhibition (off-target kinases [5]; read-out: % Inhibition 1): 3% | inhibition (off-target kinases [5]; read-out: % Inhibition 2): -7% | inhibition (off-target kinases [5]; read-out: % Inhibition Avg): -2% | inhibition (off-target kinases [6]; LanthaScreen Binding, read-out: % Inhibition 1): 6% | inhibition (off-target kinases [6]; LanthaScreen Binding, read-out: % Inhibition 2): 5% | inhibition (off-target kinases [6]; LanthaScreen Binding, read-out: % Inhibition Avg): 5% | inhibition (off-target kinases [6]; ZLYTE, ATP 100, read-out: % Inhibition 1): 7% | inhibition (off-target kinases [6]; ZLYTE, ATP 100, read-out: % Inhibition 2): 3% | inhibition (off-target kinases [6]; ZLYTE, ATP 100, read-out: % Inhibition Avg): 5% | inhibition (off-target kinases [7]; read-out: % Inhibition 1): 94% | inhibition (off-target kinases [7]; read-out: % Inhibition 2): 96% | inhibition (off-target kinases [7]; read-out: % Inhibition Avg): 95% | inhibition (off-target kinases [8]; read-out: % Inhibition 1): 21% | inhibition (off-target kinases [8]; read-out: % Inhibition 2): 19% | inhibition (off-target kinases [8]; read-out: % Inhibition Avg): 20% | inhibition (off-target kinases [9]; read-out: % Inhibition 1): 3% | inhibition (off-target kinases [9]; read-out: % Inhibition 2): 4% | inhibition (off-target kinases [9]; read-out: % Inhibition Avg): 3%
